Measured values as given in publication PMC2993763 (Journal of natural products, 2010).
Where “and” joins values, the source holds several entries; their conditions need not be identical. Equal entries are not always repeated.

Tests used:
[1] = test system: HT-29 human colon cancer cell line; assay: Cytotoxicity assay; type: cell-based; details: HT-29 cells, three days incubation, SRB stain
[2] = cited from earlier work
[3] = test system: P-388 lymphocytic leukemia; details: administered both ip and iv; cited from earlier work

| SMILES | ED50, cytotoxicity HT-29 [1] | activity in the in vivo hollow fiber assay [2] | activity in the P-388 lymphocytic leukemia test system in vivo [3] |
| --- | --- | --- | --- |
| COC(=O)[C@H]1[C@@H](O)[C@@]2(O)c3c(OC)cc(O[C@@H]4O[C@@H]([C@@H](O)CO)CO[C@H]4OC)cc3O[C@@]2(c2ccc(OC)cc2)[C@@H]1c1ccccc1 [Compound 8, episilvestrol (5‴-epi-silvestrol)] | 1 nM |  |  |
| COC(=O)[C@H]1[C@@H](O)[C@@]2(O)c3c(OC)cc(O[C@@H]4O[C@@H]([C@H](O)CO)CO[C@@H]4OC)cc3O[C@@]2(c2ccc(OC)cc2)[C@@H]1c1ccccc1 [Compound 1, 2‴-epi-silvestrol] | 2300 nM and 2290 nM |  |  |
| COC(=O)[C@H]1[C@@H](O)[C@@]2(O)c3c(OC)cc(O[C@@H]4O[C@@H]([C@H](O)CO)CO[C@H]4OC)cc3O[C@@]2(c2ccc(OC)cc2)[C@@H]1c1ccccc1 [Compound 7, silvestrol] | 0.7 nM | active | showed activity |
| COC(=O)[C@H]1[C@@H](O)[C@@]2(O)c3c(OC)cc(O[C@@H]4O[C@@H]([C@@H](O)CO)CO[C@@H]4OC)cc3O[C@@]2(c2ccc(OC)cc2)[C@@H]1c1ccccc1 [Compound 2, 2‴,5‴-diepi-silvestrol] | 1100 nM and 1070 nM |  |  |
